PubChem BioAssay (NCI)
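Results reflect a 48-hour exposure of cells in 96-well plates to compound at five concentrations. Here, GI50 denotes the concentration required for 50% inhibition of growth. TGI is the concentration that stops growth completely.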

Key:
Experiment in all cases: NCI anticancer screen, dose series, 48 h
A549 NSCLC = tested on: A549 NSCLC
EKVX NSCLC = tested on: EKVX NSCLC
IGROV1 ovarian = tested on: IGROV1 ovarian
K-562 leukemia = tested on: K-562 leukemia
NCI-H23 lung = tested on: NCI-H23 lung
SK-MEL-28 melanoma = tested on: SK-MEL-28 melanoma
SW-620 colon = tested on: SW-620 colon
U251 CNS = tested on: U251 CNS
UACC-257 melanoma = tested on: UACC-257 melanoma
UACC-62 melanoma = tested on: UACC-62 melanoma

Row | Structure (SMILES) | TGI (A549 NSCLC) | TGI (EKVX NSCLC) | TGI (IGROV1 ovarian) | TGI (K-562 leukemia) | TGI (NCI-H23 lung) | TGI (SK-MEL-28 melanoma) | TGI (SW-620 colon) | TGI (U251 CNS) | TGI (UACC-257 melanoma) | TGI (UACC-62 melanoma) | GI50 (A549 NSCLC) | GI50 (EKVX NSCLC) | GI50 (IGROV1 ovarian) | GI50 (K-562 leukemia) | GI50 (NCI-H23 lung) | GI50 (SK-MEL-28 melanoma) | GI50 (SW-620 colon) | GI50 (U251 CNS) | GI50 (UACC-257 melanoma) | GI50 (UACC-62 melanoma)
1 | COc1ccc(NC(=O)C(=O)C(CC2C(=O)NC(=S)NC2=O)C(=O)c2ccc3ccccc3c2)c([N+](=O)[O-])c1 (configuration not stated) | > 100 µM | > 100 µM | > 100 µM | > 100 µM | > 100 µM | > 100 µM | > 100 µM | > 100 µM | > 100 µM | > 100 µM |  |  |  |  |  |  |  |  |  | 
2 | Nc1ccccc1NC(=O)c1ccc(CSc2nc(N3CCOCC3)c3cccn3n2)cc1 | > 100 µM | > 100 µM | > 100 µM | > 100 µM | > 100 µM | 31.3 µM | > 100 µM | 5.61 µM | 4.54 µM | 2.82 µM | 0.977 µM | 1.08 µM | 1.18 µM | 0.312 µM | 1.52 µM | 1 µM | 0.44 µM | 0.565 µM | 0.549 µM | 0.412 µM
3 | N=c1ccn2c(n1)OC1C(OP(=O)(O)O)C(CO)OC12 (configuration not stated) | > 100 µM | > 100 µM | > 100 µM | > 100 µM | > 100 µM | > 100 µM | > 100 µM | > 100 µM | > 100 µM | > 100 µM |  |  |  |  |  |  |  |  |  | 
4 | CCOC(=O)[C@H](CSSc1ncnc2cc[nH]c12)NC(=O)[C@@H](C)c1ccc2cc(OC)ccc2c1 | > 100 µM | > 100 µM | > 100 µM | > 100 µM | > 100 µM | > 100 µM | > 100 µM | > 100 µM | > 100 µM | > 100 µM | 6.36 µM | > 100 µM | 5.08 µM | 0.156 µM | 2.18 µM | 13.8 µM | 1.64 µM | 4.77 µM | 3.62 µM | 0.425 µM
5 | O=C1c2ccccc2C(=O)N1/N=C\c1ccc(Br)cc1 | > 100 µM | > 100 µM | > 100 µM | > 100 µM | > 100 µM | > 100 µM | > 100 µM | > 100 µM | > 100 µM | > 100 µM | > 100 µM | > 100 µM | > 100 µM | > 100 µM | > 100 µM | > 100 µM | > 100 µM |  | > 100 µM | > 100 µM
6 | C[C@H]1CCC/C=C/[C@@H]2C[C@H](O)C[C@H]2[C@H](O)[C@H](S(=O)c2ccc(O)cc2)CC(=O)O1 (some centres not stated) | > 100 µM | > 36.9 µM |  | > 100 µM | 0.143 µM | > 100 µM | > 100 µM | > 77.4 µM |  | > 100 µM | 0.0422 µM | 0.0824 µM | 0.147 µM | 0.0994 µM | 0.0273 µM | 0.0316 µM | 0.0506 µM | 0.0403 µM | 0.0222 µM | 0.0349 µM
7 | CC(=O)O[C@H](C[C@H](C(C)C)N(C)C(=O)[C@@H](NC(=O)[C@H]1CCCCN1C)C(C)C)c1nc(C(=O)N[C@@H](Cc2ccccc2)C[C@H](C)C(=O)O)c(C)s1 | > 25 µM | > 25 µM | > 25 µM | > 25 µM | > 25 µM | > 25 µM | > 25 µM | > 25 µM | > 25 µM | > 25 µM | 0.00532 µM | 0.00266 µM | 0.00302 µM | < 0.0025 µM | < 0.0025 µM | < 0.0025 µM | < 0.0025 µM | < 0.0025 µM | > 25 µM | < 0.0025 µM
